Experimental data taken from ChEMBL document CHEMBL5393453, “Compositions and methods of using the same for treatment of neurodegenerative and mitochondrial disease” (2021).

How the values were obtained:
[1] = Cytotoxicity against human HeLa cells expressing YFP parkin treated with FCCP/ oligomycin assessed as highest safety dose by DAPI staining analysis; type: toxicity, cell-based; conditions: read-out: Activity
[2] = Cytotoxicity against human HeLa cells expressing YFP parkin assessed as highest safety dose by DAPI staining analysis; type: toxicity, cell-based; conditions: read-out: Activity
HeLa = test: Induction of mitophagy in human HeLa Mito-Keima/YFP-Parkin cells treated with FCCP/oligomycin measured by FACS analysis relative to DMSO; type: functional

Row | Compound | MNTC [1] | MNTC [2] | fold change (FC) (HeLa)
1 | FC(F)(F)c1cc2c(N[C@H]3c4ccccc4CC[C@@H]3N3C[C@H]4COC[C@H]4C3)ncnc2[nH]1 (single isomer, unassigned) | 2.8 µM | 25 µM | 5.44
2 | C[C@@H]1CN([C@H]2CCc3ccccc3[C@@H]2Nc2ncnc3[nH]c(C4CC4)cc23)CCO1 (single isomer, unassigned) | 1.3 µM | 25 µM | –
3 | C[C@H]1CN([C@H]2CCc3ccccc3[C@@H]2Nc2ncnc3[nH]c(C4CC4)cc23)CCO1 (single isomer, unassigned) | 3.5 µM | 25 µM | –
4 | FC(F)(F)c1cc2c(N[C@H]3c4ccccc4OC[C@@H]3C3CCOCC3)ncnc2[nH]1 (single isomer, unassigned) | 25 µM | 25 µM | –
5 | COC1CN([C@H]2COc3ccccc3[C@@H]2Nc2ncnc3[nH]c(C4CC4)cc23)C1 | 25 µM | 25 µM | –
6 | Fc1ccc2c(c1)CC[C@H](N1CCOCC1)[C@H]2Nc1ncnc2[nH]c(C3CC3)cc12 (single isomer, unassigned) | 2.8 µM | 25 µM | 5.24
7 | CO[C@@H]1CCN([C@H]2COc3ccccc3[C@@H]2Nc2ncnc3[nH]c(C(F)(F)F)cc23)C1 | 3.4 µM | 25 µM | –
8 | COC[C@H]1CCN([C@H]2COc3ccccc3[C@@H]2Nc2ncnc3[nH]c(C4CC4)cc23)C1 | 3.6 µM | 25 µM | –
9 | C[C@@H]1CN([C@H]2COc3cc(F)ccc3[C@@H]2Nc2ncnc3[nH]c(C(F)(F)F)cc23)C[C@H](C)O1 (single isomer, unassigned) | 9.9 µM | 25 µM | –
10 | Fc1ccc2c(c1)CC[C@@H](N1CCOCC1)[C@@H]2Nc1ncnc2[nH]c(C(F)(F)F)cc12 (single isomer, unassigned) | 25 µM | 25 µM | 4.67
11 | c1ccc2c(c1)CC[C@H](N1C[C@H]3COC[C@H]3C1)[C@H]2Nc1ncnc2[nH]c(C3CC3)cc12 | 0.9 µM | 25 µM | –
12 | Fc1ccc2c(c1)CC[C@@H](N1C[C@H]3COC[C@H]3C1)[C@@H]2Nc1ncnc2[nH]c(C(F)(F)F)cc12 (single isomer, unassigned) | 8.3 µM | 8.3 µM | –
13 | Fc1ccc2c(c1)CC[C@H](N1C[C@@H]3COC[C@H]3C1)[C@H]2Nc1ncnc2[nH]c(C3CC3)cc12 | 25 µM | 25 µM | –
14 | C[C@@H]1CN([C@H]2COc3ccccc3[C@@H]2Nc2ncnc3[nH]c(C(F)(F)F)cc23)C[C@H](C)O1 (single isomer, unassigned) | 7.1 µM | 25 µM | –
15 | C[C@@H]1CN([C@H]2COc3ccccc3[C@@H]2Nc2ncnc3[nH]c(C4CC4)cc23)C[C@H](C)O1 (single isomer, unassigned) | 2.3 µM | 25 µM | –
16 | C[C@H]1CN([C@@H]2COc3cc(F)ccc3[C@H]2Nc2ncnc3[nH]c(C4CC4)cc23)CCO1 | 7.4 µM | 25 µM | –
17 | C[C@@H]1CN([C@H]2CCc3ccccc3[C@@H]2Nc2ncnc3[nH]c(C(F)(F)F)cc23)CCO1 (single isomer, unassigned) | 3.7 µM | 25 µM | –
18 | FC(F)(F)c1cc2c(N[C@@H]3c4ccccc4CC[C@H]3N3C[C@H]4COC[C@H]4C3)ncnc2[nH]1 (single isomer, unassigned) | 9.1 µM | 25 µM | –
19 | C[C@@H]1CN([C@@H]2COc3ccccc3[C@H]2Nc2ncnc3[nH]c(C(F)(F)F)cc23)CCO1 | 9.7 µM | 25 µM | –
20 | c1ccc2c(c1)CC[C@H](N1C[C@@H]3COC[C@H]3C1)[C@H]2Nc1ncnc2[nH]c(C3CC3)cc12 | 3 µM | 25 µM | –

Row | Compound | MNTC [1] | MNTC [2] | fold change (FC) (HeLa)
21 | COC1CN([C@H]2COc3ccccc3[C@@H]2Nc2ncnc3[nH]c(C(F)(F)F)cc23)C1 | 8.3 µM | 8.3 µM | –
22 | C[C@@H]1CN([C@@H]2COc3ccccc3[C@H]2Nc2ncnc3[nH]c(C4CC4)cc23)CCO1 | 1.7 µM | 25 µM | –
23 | c1ccc2c(c1)OC[C@@H](C1CCOCC1)[C@@H]2Nc1ncnc2[nH]c(C3CC3)cc12 | 3.2 µM | 25 µM | –
24 | C[C@@H]1CN([C@H]2COc3cc(F)ccc3[C@@H]2Nc2ncnc3[nH]c(C4CC4)cc23)C[C@H](C)O1 (single isomer, unassigned) | 2 µM | 25 µM | –
25 | C[C@H]1CN([C@H]2COc3ccccc3[C@@H]2Nc2ncnc3[nH]c(C4CC4)cc23)CCO1 | 15.1 µM | 25 µM | –
26 | CO[C@H]1CCN([C@H]2COc3ccccc3[C@@H]2Nc2ncnc3[nH]c(C4CC4)cc23)C1 | 1.1 µM | 25 µM | –
27 | COC[C@H]1CCN([C@H]2COc3ccccc3[C@@H]2Nc2ncnc3[nH]c(C(F)(F)F)cc23)C1 (single isomer, unassigned) | 4.5 µM | 25 µM | –
28 | FC(F)(F)c1cc2c(N[C@@H]3c4ccccc4CC[C@H]3N3CCOCC3)ncnc2[nH]1 (racemic) | – | 13.9 µM | 9.53
29 | Fc1ccc2c(c1)CC[C@H](N1C[C@H]3COC[C@H]3C1)[C@H]2Nc1ncnc2[nH]c(C3CC3)cc12 | 10.3 µM | 25 µM | –
30 | [2H]C([2H])([2H])OC1CN([C@H]2COc3ccccc3[C@@H]2Nc2ncnc3[nH]c(C(F)(F)F)cc23)C1 | 19.8 µM | 25 µM | –
31 | C[C@@H]1CN([C@H]2COc3cc(F)ccc3[C@@H]2Nc2ncnc3[nH]c(C4CC4)cc23)CCO1 | 2 µM | 16.7 µM | –
32 | FC(F)(F)c1cc2c(NC3c4ccccc4OCC3N3C[C@H]4COC[C@@H]4C3)ncnc2[nH]1 (stereo partly specified) | 25 µM | 25 µM | –
33 | C[C@@H]1CN([C@@H]2COc3ccccc3[C@H]2Nc2ncnc3[nH]c(C4CC4)cc23)C[C@H](C)O1 | 1.2 µM | 25 µM | –
34 | COC[C@@H]1CCN([C@H]2COc3ccccc3[C@@H]2Nc2ncnc3[nH]c(C(F)(F)F)cc23)C1 (single isomer, unassigned) | 3.3 µM | 25 µM | –
35 | COC[C@@H]1CCN(C2COc3ccccc3C2Nc2ncnc3[nH]c(C4CC4)cc23)C1 (single isomer, unassigned) | 1.4 µM | 25 µM | –
36 | FC(F)(F)c1cc2c(NC3c4ccccc4OCC3N3C[C@@H]4COC[C@H]4C3)ncnc2[nH]1 (stereo partly specified) | 25 µM | 25 µM | –
37 | Fc1ccc2c(c1)OC[C@@H](N1C[C@H]3COC[C@H]3C1)[C@@H]2Nc1ncnc2[nH]c(C3CC3)cc12 | 16 µM | 25 µM | –
38 | c1ccc2c(c1)CC[C@H](N1CCOCC1)[C@H]2Nc1ncnc2[nH]c(C3CC3)cc12 | 2.8 µM | 25 µM | –
39 | CO[C@H]1CCN([C@H]2COc3ccccc3[C@@H]2Nc2ncnc3[nH]c(C(F)(F)F)cc23)C1 | 1.1 µM | 25 µM | –
40 | C[C@@H]1CN([C@@H]2COc3cc(F)ccc3[C@H]2Nc2ncnc3[nH]c(C(F)(F)F)cc23)C[C@H](C)O1 | 2.2 µM | 25 µM | –

Row | Compound | MNTC [1] | MNTC [2] | fold change (FC) (HeLa)
41 | C[C@@H]1CN([C@@H]2COc3cc(F)ccc3[C@H]2Nc2ncnc3[nH]c(C4CC4)cc23)C[C@H](C)O1 | 1.2 µM | 25 µM | –
42 | Fc1ccc2c(c1)CC[C@H](N1C[C@H]3COC[C@@H]3C1)[C@H]2Nc1ncnc2[nH]c(C3CC3)cc12 | 11.7 µM | 25 µM | –
43 | C[C@H]1CN([C@@H]2COc3ccccc3[C@H]2Nc2ncnc3[nH]c(C(F)(F)F)cc23)CCO1 | 19.4 µM | 19.4 µM | –
44 | c1ccc2c(c1)CC[C@@H](N1CCOCC1)[C@@H]2Nc1ncnc2[nH]c(C3CC3)cc12 (single isomer, unassigned) | 25 µM | 25 µM | –
45 | FC(F)(F)c1cc2c(N[C@@H]3c4ccccc4CC[C@H]3N3CCOCC3)ncnc2[nH]1 (single isomer, unassigned) | – | – | 7.78
46 | FC(F)(F)c1cc2c(N[C@H]3c4ccccc4CC[C@@H]3N3CC4(CCOCC4)C3)ncnc2[nH]1 (single isomer, unassigned) | – | – | 3.95
47 | FC(F)(F)c1cc2c(N[C@@H]3c4ccccc4OC[C@H]3C3CCOCC3)ncnc2[nH]1 (single isomer, unassigned) | 4.7 µM | 25 µM | –
48 | FC(F)(F)c1cc2c(N[C@H]3c4ccccc4OC[C@@H]3N3C[C@H]4COC[C@H]4C3)ncnc2[nH]1 | 25 µM | 25 µM | –
49 | C[C@@H]1CN([C@@H]2COc3ccccc3[C@H]2Nc2ncnc3[nH]c(C(F)(F)F)cc23)C[C@H](C)O1 | 2.3 µM | 25 µM | –
50 | c1ccc2c(c1)CC[C@H](C1CCOCC1)[C@H]2Nc1ncnc2[nH]c(C3CC3)cc12 (single isomer, unassigned) | 2.1 µM | 25 µM | –
51 | Fc1ccc2c(c1)CC[C@H](N1CCOCC1)[C@H]2Nc1ncnc2[nH]c(C(F)(F)F)cc12 (single isomer, unassigned) | 8.3 µM | 25 µM | 5.11
52 | FC(F)(F)c1cc2c(N[C@H]3c4ccccc4OC[C@H]3C3CCCOC3)ncnc2[nH]1 (mixture of isomers) | 25 µM | 25 µM | –
53 | FC(F)(F)c1cc2c(N[C@@H]3c4ccccc4OC[C@@H]3C3CCCOC3)ncnc2[nH]1 (single isomer, unassigned) | 25 µM | 25 µM | –
54 | OC[C@H]1CN([C@H]2COc3ccccc3[C@@H]2Nc2ncnc3[nH]c(C(F)(F)F)cc23)CCO1 (single isomer, unassigned) | – | 25 µM | –
55 | Fc1ccc2c(c1)OC[C@H](N1C[C@@H]3COC[C@H]3C1)[C@H]2Nc1ncnc2[nH]c(C3CC3)cc12 (single isomer, unassigned) | 13.9 µM | 25 µM | –
56 | Fc1ccc2c(c1)CC[C@H](N1C[C@H]3COC[C@@H]3C1)[C@H]2Nc1ncnc2[nH]c(C(F)(F)F)cc12 | 9.1 µM | 25 µM | –
57 | FC(F)(F)c1cc2c(N[C@@H]3c4ccccc4OC[C@H]3N3CCOCC3)ncnc2[nH]1 | – | 25 µM | –
58 | FC(F)(F)c1cc2c(N[C@H]3c4ccccc4OC[C@@H]3N3CCOCC3)ncnc2[nH]1 (single isomer, unassigned) | – | 25 µM | –
59 | Fc1cccc2c1CC[C@@H](N1C[C@H]3COC[C@H]3C1)[C@@H]2Nc1ncnc2[nH]c(C3CC3)cc12 (single isomer, unassigned) | – | 25 µM | –
